The source of these data is patent publication US9216181B2 (Southwest Research Institute, priority 2011, dated 2015).

For assay [1], the system named is BMP2. Put plainly: Quantitative PCR (TaqMan, ΔΔCt) of BMP2 in human mesenchymal stem cells. In kind it is cell-based. The settings on record: for fold induction at 10 µM: Homo sapiens, Mesenchymal stem cells, read-out: q-PCR Fold increase. How it is done:
(§1) Human mesenchymal stem cells (LONZA, Catalog PT2501) were maintained in Mesenchymal stem cells basal media (MSCBM CAT#PT-3238). Early passage cells were plated in triplicate at 2×10^4 cells/cm^2 using six well tissue culture plates and grown in humidified 5% CO2 at 37° C. for 24 hours. Spent media was replaced by assay media of drugs to be tested in same media as above at 10 μM final concentration. Untreated cells were used as the control group. Total RNA were prepared using either TRI Reagent (Ambion, Cat. 9738), for subsequent TaqMan gene expression qPCR of BMP2. RNA concentration and integrity was assessed by absorbance 260/280 and electrophoresis in 1% Agarose with formaldehyde loading dye. For TaqMan gene expression, cDNA was synthesized from 2 μg of total RNA using the High Capacity cDNA Reverse Transcription Kit (Applied Biosystems, Cat. 4368814). The resulting cDNA were diluted 1:100 for TaqMan and amplified by real-time quantitative PCR. Gene-specific fluorescent labeled TaqMan primers for FAM-BMP2 (Applied Biosystems, Hs00154192.m1) and TaqMan reference VIC-18S ribosomal RNA (Applied Biosystems, 4310893E) were used to target gene of interest. A cocktail of universal master mix (Applied Biosystems, 4369016) were prepared individually for both set of primers which contained Taq Polymerase, dNTPs, and buffer. Template cDNA's were added separately to respective individual wells in triplicate samples. The PCR were performed on StepOne Plus Real Time System instrument (Applied Biosystems). The amplification program consisted of 1 cycle of 95° C. with 10 minute hold (hot start) followed by 50 cycles of 95° C. with 15 second annealing hold and 1 minute 60° C. specified acquisition hold. The Ct value of endogenous reference gene (i.e. 18 s) was used to control for input RNA and then used to normalize target gene (i.e. BMP2) tested from the same cDNA sample to calculate the Δ Ct, and then calibrated to an internal reference sample. Change in gene expression was determined by the expression ΔΔCt relative method.
18 compounds were confirmed positive by the more stringent qPCR techniques. […] Included in the tables is the target or common medical use for each compounds.

Assay [2] deals with BMP-2. The assay is described as follows: Real time PCR of BMP-2 gene expression in human MSC (Cells-to-Ct). To be noted: BMP-2 mRNA, hMSC, 5-10 μM, 24 hours, vs untreated. The assay is classed as cell-based. How it is done: Early passage human mesenchymal stem cells (MSC) were thawed from one frozen cryo-vial and seeded into two T-75 tissue culture flasks and incubated at 37° C. for 48 hours in Alpha MEM with 10% FBS. After three days and one re-feeding, the cells were trypsinized and re-suspended in pre-warmed media at 5×10^4 cells/mL to provide 5,000 cells per well in a 96 well plate and incubated overnight at 37° C. in 5% CO2.
Each well was washed in cold PBS, lysed at room temperature for five minutes, and stop reagent added to each well to stop the lysis reaction. The final lysate was kept cold at 4° C. and used immediately as the RNA template for the reverse transcription cDNA synthesis following the TAQMAN GENE EXPRESSION CELLS TO CT KIT instructions.
The cDNA synthesis was prepared on a separate sterile 96-well PCR plate and performed on the Step One Plus Real Time PCR System instrument (Applied Biosystems) with the programming set at 37° C. for 60 minutes and an inactivation hold of 95° C. for five minutes. The final cDNA reaction was kept cold and used as the template for the TAQMAN GENE Real-Time PCR step following the recommended instructions for TAQMAN GENE EXPRESSION CELLS TO CT KIT assay. […] Template cDNA's were added separately to respective individual wells in replicate samples.
The PCR was performed on the STEPONEPLUS Real-Time System instrument (Applied Biosystems). The amplification program consisted of 1 cycle of 95° C. with 10 minute hold (hot start) and followed by 50 cycles of 95° C. with 15-second annealing hold and 1-minute 60° C. specified acquisition hold.
On the technique in general: Real-time PCR tracks product formation cycle by cycle.

Assay [3] deals with BMP-2. The assay is described as follows: BMP-2 fold change of JHU library compounds, confirmed by qPCR. The assay is classed as cell-based, human. The settings on record: JHU library compounds; non-treated = 1.00.
Description: To further verify the technique, a 2T3 mouse pre-osteoblast cell line derived from calvaria courtesy of Dr. Steve Harris, UTHSCSA, was utilized to visually screen the compounds of the BIOMOL library and JHU libraries, purchased from John Hopkins University including 2387 compounds (solution in wells). Specifically, Murine 2T3 were thawed from one frozen cryovial and re-seeded into two T-75 tissue culture flasks grown in Alpha MEM with 10% FBS, Glutamine, and Pen/Strip antibiotics. Cells were incubated in a humidified 37° C. under 5% CO2 for 48 hours or when cells reached 80% confluence. After reaching confluency, the 2T3 were trypsinized and resuspended in pre-warm growth media to a cell density of 5×10^4 cells/mL. Approximately 100 uL of cell suspension was seeded to a 96 well plate to give a final 5,000 cells per well. Plate was incubated overnight at 37° C. and spent media was aspirated and replace with 100 uL of growth media with 5-10 uM of presumptive drug compounds. A set of controls were untreated and treated with 10 uM of Lovastatin to be used as a visual reference morphological screening.
as §1, with “Total RNA were prepared using either TRI Reagent (Ambion, Cat. 9738), for subsequent TaqMan gene expression qPCR of BMP2.” left out, “Gene-specific fluorescent labeled TaqMan primers for FAM-BMP2 (Applied Biosystems, Hs00154192.m1) and TaqMan reference VIC-18S ribosomal RNA (Applied Biosystems, 4310893E) were used to target gene of interest.” left out, “The Ct value of endogenous reference gene (i.e. 18 s) was used to control for input RNA and then used to normalize target gene (i.e. BMP2) tested from the same cDNA sample to calculate the Δ Ct, and then calibrated to an internal reference sample.” left out
Included in the tables is the target or common medical use for each compounds.

[4] abbreviates: BMP2 mRNA, hMSC, 10 μM, vs untreated, 18S reference, BIOMOL library (Table 2).
Where [5] appears, read: BMP2 mRNA, hMSC, 10 μM, vs untreated, 18S reference, positive control compounds (Table 1).
The mark [6] stands for this setting: positive control compounds (Table 1).

SMILES strings stand for the structures. Counter-ions that a name gives are not always drawn. Like-named read-outs stand apart in the source and are kept apart here.

For the molecule `C=C1CC[C@H](O)C/C1=C/C=C1\CCC[C@]2(C)[C@@H]([C@H](C)CCCC(C)(C)O)CC[C@@H]12` [Calcifediol], in assay [1] (setting [4]), the fold induction at 10 µM turned out to be 3.4. Moreover, in assay [2] (BIOMOL library (Table 2)), the “RT PCR Fold increase” value was found to be 6.0 fold.

As for `CC[C@@]1(O)C(=O)OCc2c1cc1n(c2=O)Cc2cc3ccccc3nc2-1` [Camptothecin], in assay [1] (setting [4]), the fold induction at 10 µM is 4. Also, the “RT PCR Fold increase” value in assay [2] (BIOMOL library (Table 2)) was 29.0 fold.

Turning to `COCc1c(C(C)C)nc(C(C)C)c(/C=C/[C@@H](O)C[C@@H](O)CC(=O)O)c1-c1ccc(F)cc1` [Cerivastatin], the fold induction at 10 µM in assay [1] (setting [5]) came out at 11.9. Further, the “RT PCR Fold increase” value in assay [2] (setting [6]) turned out to be 5.3 fold.

For the molecule `N=C(N)N1CCc2ccccc2C1` [Debrisoquin sulfate], in assay [1] (setting [4]), the fold induction at 10 µM came to 6.2. Besides, in assay [2] (BIOMOL library (Table 2)), the “RT PCR Fold increase” value was found to be 8.2 fold.

On to `CC(=O)O[C@@]12CO[C@@H]1C[C@H](O)[C@@]1(C)C(=O)[C@H](O)C3=C(C)[C@@H](OC(=O)[C@H](O)[C@@H](NC(=O)OC(C)(C)C)c4ccccc4)C[C@@](O)([C@@H](OC(=O)c4ccccc4)[C@H]21)C3(C)C` [Docetaxil], for which, in assay [1] (setting [5]), the “q-PCR Fold increase” value worked out at 2.7 fold. In addition, the “RT PCR Fold increase” value in assay [2] (setting [6]) is on record as 11.0 fold.

On to `COC(=O)Nc1nc2ccc(Sc3ccccc3)cc2[nH]1` [Fenbendazole], for which, in assay [1] (setting [4]), the fold induction at 10 µM came to 2. Further, the “RT PCR Fold increase” value in assay [2] (BIOMOL library (Table 2)) amounted to 6.6 fold.

Regarding `COC(=O)Nc1nc2cc(C(=O)c3ccc(F)cc3)ccc2[nH]1` [Flubendazole], the “Fold change (BMP-2)” value in assay [3] was 10.00 fold. In assay [1] (setting [4]), the fold induction at 10 µM is 1.7. In addition, in assay [2] (BIOMOL library (Table 2)), the “RT PCR Fold increase” value worked out at 5.6 fold.

`CC(C)C(=O)Nc1ccc([N+](=O)[O-])c(C(F)(F)F)c1` [Flutamide]: the fold induction at 10 µM in assay [1] (setting [4]) is 1.6. Further, the “RT PCR Fold increase” value in assay [2] (BIOMOL library (Table 2)) stood at 9.7 fold.

Regarding `CC(C)n1c(/C=C/C(O)CC(O)CC(=O)[O-])c(-c2ccc(F)cc2)c2ccccc21.[Na+]` (stereo not drawn) [Fluvastatin Na], the “q-PCR Fold increase” value in assay [1] (setting [5]) was 7.8 fold. In addition, in assay [2] (setting [6]), the “RT PCR Fold increase” value amounted to 3.2 fold.

Turning to `COC(=O)c1ccc(O)c2nc3c(C=O)c(O)cc(O)c3nc12` [Lomofungin], the “Fold change (BMP-2)” value in assay [3] was 26.00 fold. Further, the fold induction at 10 µM in assay [1] (setting [4]) worked out at 14.2. In addition, in assay [2] (BIOMOL library (Table 2)), the “RT PCR Fold increase” value is 32.6 fold.

Take `CNCCCC12CCC(c3ccccc31)c1ccccc12` [Maprotiline]: in assay [1] (setting [4]), the fold induction at 10 µM came to 2.4. In addition, the “RT PCR Fold increase” value in assay [2] (BIOMOL library (Table 2)) was 3.6 fold.

Turning to `CC[C@H](C)C(=O)O[C@H]1CCC=C2C=C[C@H](C)[C@H](CC[C@@H]3C[C@@H](O)CC(=O)O3)[C@H]21` [Mevastatin], the fold induction at 10 µM in assay [1] (setting [5]) stood at 0.9. In addition, the “RT PCR Fold increase” value in assay [2] (setting [6]) turned out to be 3.1 fold.

Consider `CCCCN1C[C@H](O)[C@@H](O)[C@H](O)[C@H]1CO` [Miglustat], for which the fold induction at 10 µM in assay [1] (setting [4]) turned out to be 6.6. Besides, the “RT PCR Fold increase” value in assay [2] (BIOMOL library (Table 2)) is 4.9 fold.

Consider `CCCOc1ccc2nc(NC(=O)OC)[nH]c2c1` [Oxibendazole], for which the “Fold change (BMP-2)” value in assay [3] came to 18.00 fold. Further, the fold induction at 10 µM in assay [1] (setting [4]) came out at 1.4. Moreover, the “RT PCR Fold increase” value in assay [2] (BIOMOL library (Table 2)) turned out to be 4.5 fold.

On to `COc1cc2nc(N3CCN(C(=O)c4ccco4)CC3)nc(N)c2cc1OC` [Prazosin], for which the fold induction at 10 µM in assay [1] (setting [4]) was 4. Moreover, the “RT PCR Fold increase” value in assay [2] (BIOMOL library (Table 2)) was 6.8 fold.

Regarding `COc1ccc(C[C@H](N)C(=O)N[C@H]2[C@@H](O)[C@H](n3cnc4c(N(C)C)ncnc43)O[C@@H]2CO)cc1` [Puromycin], the fold induction at 10 µM in assay [1] (setting [4]) was 54.6. Moreover, the “RT PCR Fold increase” value in assay [2] (BIOMOL library (Table 2)) turned out to be 122.3 fold.

Consider `CC(C)=CC[C@@H](O)C1=CC(=O)c2c(O)ccc(O)c2C1=O` [Shikonin], for which, in assay [1], the fold induction at 10 µM is 1.5. Besides, the “RT PCR Fold increase” value in assay [2] (setting [6]) was found to be 23.5 fold.

For the molecule `CCC(C)(C)C(=O)O[C@H]1C[C@@H](C)C=C2C=C[C@H](C)[C@H](CC[C@@H]3C[C@@H](O)CC(=O)O3)[C@H]21` [Simvastatin], in assay [1], the fold induction at 10 µM was determined as 2.3. For the same molecule, in assay [2] (setting [6]), the “RT PCR Fold increase” value turned out to be 4.2 fold.

Take `CC(=O)O[C@H]1C(=O)[C@@]2(C)[C@H]([C@H](OC(=O)c3ccccc3)[C@]3(O)C[C@H](OC(=O)[C@H](O)[C@@H](NC(=O)c4ccccc4)c4ccccc4)C(C)=C1C3(C)C)[C@]1(OC(C)=O)CO[C@@H]1C[C@@H]2O` [Taxol]: the fold induction at 10 µM in assay [1] (setting [5]) came to 4. For the same molecule, the “RT PCR Fold increase” value in assay [2] (setting [6]) worked out at 3.7 fold.

Regarding `CC(C)(C)c1ccc(C(O)CCCN2CCC(C(O)(c3ccccc3)c3ccccc3)CC2)cc1` (stereo not drawn) [Terfenadine], in assay [1] (setting [4]), the fold induction at 10 µM turned out to be 10.4. The “RT PCR Fold increase” value in assay [2] (BIOMOL library (Table 2)) came to 13.9 fold.

In the case of `CC[C@]1(O)C[C@@H]2CN(CCc3c([nH]c4ccccc34)[C@@](C(=O)OC)(c3cc4c(cc3OC)N(C)[C@H]3[C@@](O)(C(=O)OC)[C@H](OC(C)=O)[C@]5(CC)C=CCN6CC[C@]43[C@@H]65)C2)C1` [Vinblastine sulfate], in assay [3], the “Fold change (BMP-2)” value is 64.00 fold. Moreover, in assay [1] (setting [5]), the fold induction at 10 µM stood at 1.7. Further, in assay [2] (setting [6]), the “RT PCR Fold increase” value amounted to 9.5 fold.

Take `CC[C@]1(O)C[C@@H]2CN(CCc3c([nH]c4ccccc34)[C@@](C(=O)OC)(c3cc4c(cc3OC)N(C)[C@H]3[C@@](O)(C(N)=O)[C@H](O)[C@]5(CC)C=CCN6CC[C@]43[C@@H]65)C2)C1` [Vindesine]: the fold induction at 10 µM in assay [1] (setting [5]) is 1.8. In assay [2] (setting [6]), the “RT PCR Fold increase” value is 12.4 fold.
